The MIC is the least concentration at which growth counts as inhibited. Usually HC50 stands for the concentration that lyses half of the red blood cells.

Here are results for five compounds from PMC12452389, “Arginine-Derived Cationic Surfactants Containing Phenylalanine and Tryptophan: Evaluation of Antifungal Activity, Biofilm Eradication, Cytotoxicity, and Ecotoxicity” (Journal of Xenobiotics, 2025).

Converted amounts (≈) assume the structure as drawn. Read-outs that look alike come from different tables or passages of the source.

Data set [1] concerns S. aureus SH1000. Further details: method as in PMID 19889790. Particulars: cited from earlier work.
For data set [2], the system named is S. aureus SH1000. Further details: method as in PMID 19889790. Particulars: cited from earlier work. This is another data set of the same source.
The subject of data set [3] is erythrocytes. Kind of data set: Hemolytic activity assay. The format is cell-based. Particulars: rabbit erythrocytes. The method, then: Fresh rabbit blood was obtained from the Animal Facility of the CID-CSIC (Research and Development Center, Spanish National Research Council, Barcelona, Spain). Sample collection was conducted in strict compliance with the bioethical guidelines established under Spanish legislation. Erythrocytes were isolated by centrifugation (3000 rpm/10 min). The supernatant was discarded, and the erythrocytes were washed three times with PBS (phosphate-buffered saline, pH 7.4) and then resuspended in PBS at a concentration of 8 × 10^9 cells/mL. Subsequently, varying volumes of a concentrated surfactant solution were added to Eppendorf tubes containing 25 μL of erythrocyte suspension. PBS was then added to bring the total volume to 1 mL. The samples were gently shaken for 10 min at room temperature and centrifuged at 10,000 rpm for 5 min. Hemolysis was evaluated by measuring the absorbance of the supernatant at 540 nm and comparing it to that of a 100% hemolysis control (erythrocytes treated with distilled water). The HC50, defined as the surfactant concentration that induces 50% hemolysis, was determined from the concentration–response curves: % hemolysis= Abstest compound/AbsBasal haemolytic activity ×100

Data set [4] concerns Daphnia magna. Kind of data set: Acute toxicity, immobilization test. The format is in vivo. As to conditions: Daphnia magna immobilization, 48 h of exposure; 95% confidence intervals in parentheses. The method, then:
Aquatic toxicity evaluation was performed using Daphnia magna following established protocols. This bioassay method employs laboratory-cultured freshwater microcrustaceans to evaluate surfactant toxicity in aquatic environments. Test organisms were utilized during their initial 24 h life stage to ensure consistency. The endpoint measurement focused on mobility impairment, specifically the loss of swimming capability after gentle stimulation lasting 15 s. Testing conditions included controlled water chemistry parameters: pH maintained at 8.0, calcium-to-magnesium ratio of 4:1, and total hardness of 250 mg/L as CaCO3. All experiments were conducted under dark conditions at 20 °C. The experimental design incorporated ten test concentrations for each surfactant compound, distributed in geometric progression. Each concentration level included 20 Daphnia specimens distributed across four replicate groups of five organisms each. Mobility assessment occurred at 48 h post-exposure, with immobilization percentages plotted against concentration using probability–logarithmic scaling.

The subject of data set [5] is Candida glabrata ATCC 66032. Kind of data set: MIC broth microdilution. Particulars: C. glabrata. The format is cell-based. How it is done: (§1) The antimicrobial activity of these compounds was assessed against selected yeast and bacterial strains: Candida albicans ATCC 90028 (CA9), Candida rugosa ATCC 10571 (CR), Candida glabrata ATCC 66032 (CG), Candida parapsilosis ATCC 22019 (CP), Candida tropicalis ATCC 7349 (CT), Candida auris ATCC 21092 (CA), and Cyberlindnera jadinii ATCC 60459. Frozen yeast stocks were plated on Sabouraud agar (SBA) and incubated at 30 °C for 24 h. Three to four colonies from each strain were then suspended in RPMI 1640 (Roswell Park Memorial Institute medium, Sigma- Aldrich, Merck, Darmstadt, Germany) to prepare bacterial dispersions of ~1.5 × 10^6 CFU/mL.
(§2) A broth microdilution assay was used to calculate MIC values. Twofold serially diluted compounds in RPMI 1640 medium (from 256 to 2 μg/mL), were dispensed (100 μL per well) into a 96-well plate. Then, 100 μL of a yeast starter culture was added to each well to reach a final inoculum of 7.5 × 10^5 CFU/mL. Wells containing only nutrient broth without the tested surfactant served as growth controls. Microbial growth was assessed by turbidity, which reflects increases in biomass and cell count. […] To confirm the obtained MICs, 20 μL of 0.015% (w/v) resazurin was dispensed to each well and incubated for 3 h at 30 °C. Metabolic activity was evidenced by a color change from blue to pink, thereby confirming the MIC value.
A general note: In broth dilution the organism is exposed to a series of concentrations in liquid medium.

The test system of data set [6] is Candida tropicalis ATCC 7349. Kind of data set: MIC broth microdilution. The format is cell-based. Particulars: C. tropicalis. How it is done: as §1, §2
The test system of data set [7] is Candida rugosa ATCC 10571. The data set can be described thus: MIC broth microdilution. The data set is classed as cell-based. Particulars: C. rugosa. How it is done:
as §1, §2

The subject of data set [8] is Candida auris ATCC 21092. The data set can be described thus: MIC broth microdilution. The data set is classed as cell-based. Particulars: C. auris. The method, then: as §1, §2
Data set [9] concerns Cyberlindnera jadinii ATCC 60459 (C. jardinii). The data set can be described thus: MIC broth microdilution. As to conditions: C. jardinii. The data set is classed as cell-based. The method, then: as §1, §2
Data set [10] has as its system Candida albicans ATCC 90028. Kind of data set: MIC broth microdilution. The format is cell-based. Particulars: C. albicans. The method, then:
as §1, §2

Data set [11] has as its system Candida parapsilosis ATCC 22019. The data set can be described thus: MIC broth microdilution. Particulars: C. parapsilosis. The format is cell-based. The method, then:
as §1, §2

Data set [12] can be described thus: cmc by conductivity. The format is physicochemical. Particulars: conductivity measurements; BAC mixture C12 (70%) and C14 (30%).
[13] abbreviates: value in parentheses, read-out: MIC.

Regarding `CCCCCCCCCCCCCCCC[N+](C)(C)C.[Br-]` [CTAB], the MBEC in [1] is listed as above 256 µg/mL. Also, the MIC in [2] was 2 µg/mL.

Consider `[H]/N=C(\N/C(=N/[H])NCCCCCCNC(=N)NC(=N)Nc1ccc(Cl)cc1)Nc1ccc(Cl)cc1` [chlorhexidine], for which the MBEC in [1] is above 256 µg/mL. In data set [2], the MIC is recorded as 1 µg/mL (≈ 1.98 µM).

On to `O=C(O)c1cn(C2CC2)c2cc(N3CCNCC3)c(F)cc2c1=O` [ciprofloxacin], for which the MBEC in data set [1] is above 256 µg/mL. The MIC in data set [2] is listed as 4 µg/mL (≈ 12.1 µM).

`CN(C)[C@@H]1C(O)=C(C(N)=O)C(=O)[C@@]2(O)C(O)=C3C(=O)c4c(O)cccc4[C@@](C)(O)[C@H]3C[C@@H]12` [tetracycline]: the MBEC in data set [1] is recorded as above 256 µg/mL. The MIC in data set [2] was 0.5 µg/mL (≈ 1.13 µM).

Regarding “benzalkonium chloride [BAC, reference compound]”, the HC50 in data set [3] (10 min, room temperature) was 31 ± 0.3 µg/mL; in data set [3] (value in parentheses) it was 92 ± 0.8 µM. In addition, the EC50 in [4] was 0.039 (0.023–0.05) μg/mL. Further, the MIC is 8 µg/mL in data set [5] (RPMI 1640, 24 h, 30 °C); 24 µM in data set [5] (setting [13]); 4 µg/mL in [6] (RPMI 1640, 24 h, 30 °C); 12 µM in [6] (setting [13]); 8 µg/mL in data set [7] (RPMI 1640, 24 h, 30 °C); 24 µM in data set [7] (setting [13]). In addition, the MIC came to 32 µg/mL in data set [8] (RPMI 1640, 24 h, 30 °C); 98 µM in data set [8] (setting [13]); 16 µg/mL in data set [9] (RPMI 1640, 24 h, 30 °C); 48 µM in data set [9] (setting [13]); 8 µg/mL in [10] (RPMI 1640, 24 h, 30 °C); 24 µM in data set [10] (setting [13]). Moreover, the MIC in [11] (RPMI 1640, 24 h, 30 °C) is 4 µg/mL; in data set [11] (setting [13]), 12 µM. The cmc in data set [12] is reported as 5.2 mM.
